Measured values from US20180055816A1, “PYRANONAPHTHOQUINONE COMPOUNDS AND METHODS OF USE THEREOF” (University of Kentucky Research Foundation, priority 2016, published 2018).

Columns and labels:
Prx1 = target: T1, Prx1 (Homo sapiens, UniProt Q06830); assay: Prx1 catalytic activity inhibition; format: biochemical; conditions: recombinant Prx1, 1 hour incubation
T1 sequence (Q06830 1-199): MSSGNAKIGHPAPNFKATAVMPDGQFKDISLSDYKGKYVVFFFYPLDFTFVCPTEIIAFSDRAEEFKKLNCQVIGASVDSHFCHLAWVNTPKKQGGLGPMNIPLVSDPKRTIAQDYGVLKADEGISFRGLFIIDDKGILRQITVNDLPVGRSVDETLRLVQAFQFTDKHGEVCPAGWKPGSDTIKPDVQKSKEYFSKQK
Method: The recombinant Prx1 protein was incubated with the indicated concentration of FB, 12, or conoidin A for 1 hour. Data are presented as mean±s.e.m. (n=3 technical replicates per condition). […]. Statistical significance was determined by the Student's t-test.
Prx1 and Grx3 are antioxidant enzymes known to regulate oxidative stress. Prx1 catalyzes peroxide reduction of H2O2, whereas Grx3 functions as glutathione (GSH)-dependent oxidoreductase by participating in the conversion of reduced GSH to oxidized glutathione disulfide (GSSG). […] While Grx3 biochemical assays are lacking, FB and active analogs could lead to a decrease in GSH levels and an increase in GSSG levels in HCT116 cells (FIGS. 23A-B). As antioxidant enzymes utilize cysteine-containing active sites to reduce various cellular peroxide or disulfide substrates, the role of Prx1/Grx3 cysteines in FB ligand-binding was assessed through replacing their cysteines to alanines. […] Finally, mass spectrometry analysis confirmed the covalent modification of Prx1 and Grx3 by FB at these specific target sites. These cumulative studies provide strong validation of Prx1 and Grx3 as the predominate molecular targets of PNQs in cancer cells.

H2O2 = assay: Cellular H2O2 level in HCT116 cells; format: cell-based, human; conditions: HCT116, 2 μM, 5 h
Method: The ROS production was determined using the CellROX Deep Red Flow Cytometry Assay Kit according to the manufacturer's protocol (Life Technologies). Briefly, cells were treated with 2 μM of the indicated compounds or DMSO as control for 1 h. After treatment, cells were incubated with 0.5 μM of CellROX Deep Red reagent for 1 h at 37° C., washed twice with PBS and immediately analyzed by a FACScan flow cytometer. For the measurement of cellular H2O2 level, cells were treated with 2 μM of the indicated compounds for 5 h.

CCCC1OC2CC(=O)OC2C2=C1C(=O)c1c(O)cccc1C2=O (centres unmarked) [FB, frenolicin B]
inhibition of Prx1 catalytic activity (Prx1): potently inhibit
cellular H2O2 (H2O2): marked increase
